Data as given in US9029337B2, “Modulation of factor 7 expression” (Isis Pharmaceuticals, Inc., priority 2007, dated 2015).
Strand notation (5' to 3'): a small letter for the sugar, then the base; units joined by * are phosphorothioate-linked, units joined directly phosphodiester-linked; [ ] holds rarer units or linkages, { } end groups; capitals alone tell only the bases. e = 2'-O-(2-methoxyethyl) (MOE); [5mC] = 5-methylcytosine; d = 2'-deoxy (DNA)

Key:
platelet factor-4 (PF-4) = assay: Thrombus formation by real-time RT-PCR quantification of PF-4 in the FeCl3 induced venous thrombosis model; assay type: in vivo, mouse; conditions: Example 16, BALB/c mice, vena cava
murine Factor 7 mRNA = assay: Liver Factor 7 mRNA in the FeCl3 induced venous thrombosis model; assay type: in vivo, mouse; conditions: for % inhibition of Factor 7 mRNA: liver; for % inhibition of Factor 7 mRNA, relative to PBS control: BALB/c mice liver, two days after last dose
Description: Three groups of BALB/c mice were injected with 25 mg/kg, 37.5 mg/kg, or 50 mg/kg of ISIS 403102, administered subcutaneously twice a week for 3 weeks. Two control groups of BALB/c mice were treated with PBS, administered subcutaneously twice a week for 3 weeks. Thrombus formation was induced with FeCl3 in half of the mice while the rest of the mice were assayed for tail bleeding. Two days after receiving the last dose of ISIS 403102 or PBS, mice were anesthetized with 150 mg/kg ketamine mixed with 10 mg/kg xylazine administered by intraperitoneal injection. Thrombus formation was induced with FeCl3 in all groups of the VT mice except the first control group.
In mice undergoing FeCl3 treatment, thrombus formation was induced by applying a piece of filter paper (2×4 mm) pre-saturated with 10% FeCl3 solution directly on the vena cava. After 3 minutes of exposure, the filter paper was removed. Thirty minutes after the filter paper application, a fixed length of the vein containing the thrombus was dissected out for platelet analysis. Liver was collected for RNA analysis.
RNA was extracted from liver tissue for real-time RT-PCR analysis of Factor 7. Results are presented as percent inhibition of Factor 7, relative to PBS control.
ISIS 403102 and warfarin (Coumadin®) were evaluated in BALB/c mice. Four groups of BALB/c mice were treated with 5 mg/kg, 10 mg/kg, 20 mg/kg, or 40 mg/kg of ISIS 403102, administered subcutaneously twice a week for 3 weeks. Two days after receiving the last dose of ISIS 403102, mice were anesthetized with 150 mg/kg ketamine mixed with 10 mg/kg xylazine administered by intraperitoneal injection. A fifth group of BALB/c mice was treated with 3 mg/kg of warfarin, administered intraperioneally daily for 6 days. Four hours after the last dose of warfarin, mice were sacrificed. A control group of BALB/c mice were treated with PBS, administered subcutaneously twice a week for 3 weeks. Two days after the last dose of PBS, mice were anesthetized with 150 mg/kg ketamine mixed with 10 mg/kg xylazine administered by intraperitoneal injection. Thrombus formation was induced with FeCl3 in groups of mice except the first control group.

murine Factor 7 protein = assay: Plasma Factor 7 protein, Factor 7 chromogenic assay, BALB/c mice; assay type: in vivo, mouse
Description: BALB/c mice were treated with ISIS 403102 ([…], target site 11336, incorporated herein as SEQ ID NO: 161). BALB/c mice were injected subcutaneously with 5 mg/kg, 10 mg/kg, 25 mg/kg, or 50 mg/kg of ISIS 403102 twice a week for 3 weeks. A control group of mice was injected subcutaneously with PBS twice a week for 3 weeks. After the treatment period, whole liver was collected for RNA and protein analysis, and plasma was collected for clotting analysis (PT/aPTT).
Plasma Factor 7 protein was measured using a Factor 7 chromogenic assay (Hyphen BioMed). […] Results are presented as percent inhibition of Factor 7, relative to control.

human Factor 7 mRNA = assay: Antisense inhibition of human Factor 7 mRNA in HepB3 cells, 50 nM antisense oligonucleotide, lipofectin; assay type: cell-based; conditions: lipofectin, approximately 24 hours
In short: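 Percent inhibition of Factor 7 mRNA, relative to untreated control, comes from real-time RT-PCR with RIBOGREEN normalization, using primer probe set RTS 2927 in some runs. RNA was taken roughly 24 h after lipofectin delivery of 50 nM oligonucleotide into HepB3 cells.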

[1] = Table 1, 50 nM, relative to untreated control cells
[2] = 50 nM antisense oligonucleotide, Factor 7 mRNA by real-time RT-PCR (RTS 2927), relative to untreated control

Substance | PF-4 (percentage of PF-4 as compared to the PBS-treated control groups) (platelet factor-4 (PF-4); 1 mg/kg s.c. twice a week for 3 weeks) | PF-4 (percentage of PF-4 as compared to the PBS-treated control groups) (platelet factor-4 (PF-4); 3 mg/kg s.c. twice a week for 3 weeks) | % inhibition of Factor 7 mRNA (murine Factor 7 mRNA; Example 14, 25 mg/kg subcutaneously twice a week for 3 weeks) | % inhibition of Factor 7 mRNA (murine Factor 7 mRNA; Example 14, 37.5 mg/kg subcutaneously twice a week for 3 weeks) | % inhibition of Factor 7 mRNA (murine Factor 7 mRNA; Example 14, 50 mg/kg subcutaneously twice a week for 3 weeks) | reduction of Factor 7 mRNA in comparison to the PBS control (murine Factor 7 mRNA; Example 14, 25, 37.5, 50 mg/kg twice a week for 3 weeks) | reduction of Factor 7 mRNA in comparison to the PBS control (murine Factor 7 mRNA; Example 15, 5, 10, 20, 40 mg/kg subcutaneously twice a week for 3 weeks) | % inhibition of Factor 7 mRNA, relative to PBS control (murine Factor 7 mRNA; Example 15, 5 mg/kg s.c. twice a week for 3 weeks) | % inhibition of Factor 7 mRNA, relative to PBS control (murine Factor 7 mRNA; Example 15, 10 mg/kg s.c. twice a week for 3 weeks) | % inhibition of Factor 7 mRNA, relative to PBS control (murine Factor 7 mRNA; Example 15, 20 mg/kg s.c. twice a week for 3 weeks) | % inhibition of Factor 7 mRNA, relative to PBS control (murine Factor 7 mRNA; Example 15, 40 mg/kg s.c. twice a week for 3 weeks) | % inhibition of murine Factor 7 protein (murine Factor 7 protein; 5 mg/kg subcutaneously twice a week for 3 weeks) | % inhibition of murine Factor 7 protein (murine Factor 7 protein; 10 mg/kg subcutaneously twice a week for 3 weeks) | % inhibition of murine Factor 7 protein (murine Factor 7 protein; 25 mg/kg subcutaneously twice a week for 3 weeks) | % inhibition of murine Factor 7 protein (murine Factor 7 protein; 50 mg/kg subcutaneously twice a week for 3 weeks) | reduction of murine Factor 7 protein over the PBS control (murine Factor 7 protein; 5-50 mg/kg twice a week for 3 weeks) | % Inhibition (human Factor 7 mRNA; [1]) | % Inhibition (human Factor 7 mRNA; Table 13 (microwalk), 50 nM) | % Inhibition (human Factor 7 mRNA; [2])
CCATAGAACAGCTTCACAGG (sugars from the 5' end e5 d10 e5, backbone and methylation of C not given here) [ISIS 403102] | 120% | 112% | 24% | 74% | 69% | significant dose-dependent reduction of Factor 7 mRNA | significant dose-dependent reduction of Factor 7 mRNA | 59% | 84% | 95% | 99% | 71% | 88% | 99% | 99% | dose-dependent reduction of murine Factor 7 protein |  |  | 
407935 (antisense eA*eT*eG*e[5mC]*eA*dT*dG*dG*dT*dG*dA*dT*dG*d[5mC]*dT*eT*e[5mC]*eT*eG*eA) [compound 407935] |  |  |  |  |  |  |  |  |  |  |  |  |  |  |  |  | 94% | 79% | 72%
407939 (antisense eT*eG*e[5mC]*eA*eG*d[5mC]*d[5mC]*d[5mC]*dG*dG*d[5mC]*dA*d[5mC]*d[5mC]*d[5mC]*eA*eG*e[5mC]*eG*eA) [compound 407939] |  |  |  |  |  |  |  |  |  |  |  |  |  |  |  |  | 93% |  | 76%
